Assay [1] concerns CD8+ T cells. In words: In vitro T-cell priming assay with aAPCs loaded with peptide/MHC and anti-CD28, pMHC multimer readout. The class given is cell-based, human. Conditions: for Wells positive [%]: Table 10B; for Donors: percentage of positive donors; for Donors / wells: Table 10A; for wells: percentage of positive wells. The source says:
In order to obtain information regarding the immunogenicity of the TUMAPs of the present invention, the inventors performed investigations using an in vitro T-cell priming assay based on repeated stimulations of CD8+ T cells with artificial antigen presenting cells (aAPCs) loaded with peptide/MHC complexes and anti-CD28 antibody.
In order to perform in vitro stimulations by artificial antigen presenting cells loaded with peptide-MHC complex (pMHC) and anti-CD28 antibody, the inventors first isolated CD8+ T cells from fresh HLA-A*02 leukapheresis products via positive selection using CD8 microbeads (Miltenyi Biotec, Bergisch-Gladbach, Germany) of healthy donors obtained from the University clinics Mannheim, Germany, after informed consent.
PBMCs and isolated CD8+ lymphocytes were incubated in T-cell medium (TCM) until use consisting of RPMI-Glutamax (Invitrogen, Karlsruhe, Germany) supplemented with 10% heat inactivated human AB serum (PAN-Biotech, Aidenbach, Germany), 100 U/ml Penicillin/100 μg/ml Streptomycin (Cambrex, Cologne, Germany), 1 mM sodium pyruvate (CC Pro, Oberdorla, Germany), 20 μg/ml Gentamycin (Cambrex). 2.5 ng/ml IL-7 (PromoCell, Heidelberg, Germany) and 10 U/ml IL-2 (Novartis Pharma, Nurnberg, Germany) were also added to the TCM at this step.
Generation of pMHC/anti-CD28 coated beads, T-cell stimulations and readout was performed in a highly defined in vitro system using four different pMHC molecules per stimulation condition and 8 different pMHC molecules per readout condition.
The purified co-stimulatory mouse IgG2a anti human CD28 Ab 9.3 (Jung et al., 1987) was chemically biotinylated using Sulfo-N-hydroxysuccinimidobiotin as recommended by the manufacturer (Perbio, Bonn, Germany). Beads used were 5.6 μm diameter streptavidin coated polystyrene particles (Bangs Laboratories, Illinois, USA).
800.000 beads/200 μl were coated in 96-well plates in the presence of 4×12.5 ng different biotin-pMHC, washed and 600 ng biotin anti-CD28 were added subsequently in a volume of 200 μl. Stimulations were initiated in 96-well plates by co-incubating 1×10^6 CD8+ T cells with 2×10^5 washed coated beads in 200 μl TCM supplemented with 5 ng/ml IL-12 (PromoCell) for 3 days at 37° C. Half of the medium was then exchanged by fresh TCM supplemented with 80 U/ml IL-2 and incubating was continued for 4 days at 37° C. This stimulation cycle was performed for a total of three times. For the pMHC multimer readout using 8 different pMHC molecules per condition, a two-dimensional combinatorial coding approach was used as previously described (Andersen et al., 2012) with minor modifications encompassing coupling to 5 different fluorochromes. Finally, multimeric analyses were performed by staining the cells with Live/dead near IR dye (Invitrogen, Karlsruhe, Germany), CD8-FITC antibody clone SK1 (BD, Heidelberg, Germany) and fluorescent pMHC multimers. For analysis, a BD LSRII SORP cytometer equipped with appropriate lasers and filters was used. Peptide specific cells were calculated as percentage of total CD8+ cells. Evaluation of multimeric analysis was done using the FlowJo software (Tree Star, Oregon, USA). In vitro priming of specific multimer+CD8+ lymphocytes was detected by comparing to negative control stimulations.

Assay [2] addresses HLA-A*02:01 (Homo sapiens, UniProt P04439, D140Y/D185E/D98H/E176V/E277Q/G131W/G231S/I119V/I121R/I166T/I218V/L300P/L318F/N151K/N90K/P208A/P217A/Q86G/Q94H/R138H/R169H/T345S). In words: MHC binding assay: UV-ligand exchange with β2m ELISA. Conditions: peptide exchange yield, binding to HLA-A*02:01. The source says: Candidate peptides for T cell based therapies according to the present invention were further tested for their MHC binding capacity (affinity). The individual peptide-MHC complexes were produced by UV-ligand exchange, where a UV-sensitive peptide is cleaved upon UV-irradiation, and exchanged with the peptide of interest as analyzed. Only peptide candidates that can effectively bind and stabilize the peptide-receptive MHC molecules prevent dissociation of the MHC complexes. To determine the yield of the exchange reaction, an ELISA was performed based on the detection of the light chain (β2m) of stabilized MHC complexes. The assay was performed as generally described in Rodenko et al. (Rodenko et al., 2006).
96 well MAXISorp plates (NUNC) were coated over night with 2 ug/ml streptavidin in PBS at room temperature, washed 4× and blocked for 1 h at 37° C. in 2% BSA containing blocking buffer. Refolded HLA-A*02:01/MLA-001 monomers served as standards, covering the range of 15-500 ng/ml. Peptide-MHC monomers of the UV-exchange reaction were diluted 100 fold in blocking buffer. Samples were incubated for 1 h at 37° C., washed four times, incubated with 2 ug/ml HRP conjugated anti-β2m for 1 h at 37° C., washed again and detected with TMB solution that is stopped with […]. Absorption was measured at 450 nm. Candidate peptides that show a high exchange yield (preferably higher than 50%, most preferred higher than 75%) are generally preferred for a generation and production of antibodies or fragments thereof, and/or T cell receptors or fragments thereof, as they show sufficient avidity to the MHC molecules and prevent dissociation of the MHC complexes.
On the technique in general: ELISA stands for enzyme-linked immunosorbent assay.

Consider “1 (STYGGGLSV; listed as Homo sapiens) [compound 1]”, for which the “Wells positive [%]” value in assay [1] is “+ (<20% = +)”. Also, in assay [2], the Peptide exchange result is given as “+++ (≥50 = +++)”. The matching figures for “2 (SLYNLGGSKRISI; listed as Homo sapiens) [compound 2]”: “+ (<20% = +)” and “++++ (≥75% = ++++)”. The matching figures for “5 (NLMASQPQL; listed as Homo sapiens) [compound 5]”: “+++ (50%-69% = +++)” and “+++ (≥50 = +++)”. The matching figures for “6 (LLSGDLIFL; listed as Homo sapiens) [compound 6]”: “++ (20%-49% = ++)” and “+++ (≥50 = +++)”. Turning to “12 (GLASRILDA; listed as Homo sapiens) [compound 12]”, the “Wells positive [%]” value in assay [1] was “+ (<20% = +)”. Further, the Peptide exchange result in assay [2] is given as “+++ (≥50 = +++)”.

Consider “19 (GLAPFLLNAV; listed as Homo sapiens) [compound 19]”, for which, in assay [1], the “Wells positive [%]” value is “+ (<20% = +)”. Further, the Peptide exchange result in assay [2] is on record as “+++ (≥50 = +++)”. As for “29 (SLDGTELQL; listed as Homo sapiens) [compound 29]”, the “Wells positive [%]” value in assay [1] is reported as “+ (<20% = +)”. The Peptide exchange result in assay [2] was “+++ (≥50 = +++)”.

On to “47 (VLASGFLTV; listed as Homo sapiens) [compound 47]”, for which the “Wells positive [%]” value in assay [1] is “+++ (50%-69% = +++)”. The Peptide exchange result in assay [2] is “++++ (≥75% = ++++)”. The matching figures for “69 (GLLVGSEKVTM; listed as Homo sapiens) [compound 69]”: “+ (<20% = +)” and “+++ (≥50 = +++)”. The matching figures for “77 (VLVPYEPPQV; listed as Homo sapiens) [compound 77]”: “+ (<20% = +)” and “++ (≥20% = ++)”. As for “82 (HLLGHLEQA; listed as Homo sapiens) [compound 82]”, in assay [2], the Peptide exchange entry is reported as “+++ (≥50 = +++)”. Same read-out and setting: to “83 (ALADGVVSQA; listed as Homo sapiens) [compound 83]” belongs “+++ (≥50 = +++)”; to “84 (SLAESLDQA; listed as Homo sapiens) [compound 84]”, “+++ (≥50 = +++)”.

For “85 (NIIELVHQV; listed as Homo sapiens) [compound 85]”, in assay [2], the Peptide exchange result is “++++ (≥75% = ++++)”.

Turning to “87 (FLDNGPKTI; listed as Homo sapiens) [compound 87]”, in assay [2], the Peptide exchange entry was “+++ (≥50 = +++)”. Same read-out and setting: then “89 (SLADSLYNL; listed as Homo sapiens) [compound 89]”, with “++ (≥20% = ++)”; and “90 (SIYEYYHAL; listed as Homo sapiens) [compound 90]”, with “+++ (≥50 = +++)”; and “91 (KLIDDVHRL; listed as Homo sapiens) [compound 91]”, with “++++ (≥75% = ++++)”. Still for that read-out and setting: to “92 (SILRHVAEV; listed as Homo sapiens) [compound 92]” belongs “++ (≥20% = ++)”; to “93 (VLINTSVTL; listed as Homo sapiens) [compound 93]”, “+++ (≥50 = +++)”. For the substance “94 (TLLQEQGTKTV; listed as Homo sapiens) [compound 94]”, in assay [1], the Donors entry is “++ (20%-49% = ++)” and the wells entry was “+ (<20% = +)”. The matching figures for “95 (LIQDRVAEV; listed as Homo sapiens) [compound 95]”: “++ (20%-49% = ++)” and “+ (<20% = +)”.

For the substance “97 (ELDRTPPEV; listed as Homo sapiens) [compound 97]”, in assay [1], the Donors entry is reported as “++++ (>= 70% = ++++)” and the wells entry was “++ (20%-49% = ++)”.

For “98 (VLFPNLKTV; listed as Homo sapiens) [compound 98]”, in assay [1], the Donors entry was “++++ (>= 70% = ++++)” and the wells entry is “+ (<20% = +)”.

On to “101 (AMTQLLAGV; listed as Homo sapiens) [compound 101]”, for which, in assay [1], the Donors entry is reported as “+++ (50%-69% = +++)” and the wells entry is listed as “++ (20%-49% = ++)”.

Source of the values: US12351616B2, “Peptides and combination of peptides for use in immunotherapy against esophageal cancer and other cancers” (Immatics Biotechnologies GmbH, priority 2015, dated 2025).
